Assay results reported in patent US10376520B2, “Methods for the treatment of cardiovascular disorders” (Galapagos NV, priority 2015, dated 2019).

System: RA patients
Experiment: [HDL] determination, Study 4 (RA patients, 4 weeks, add-on to MTX)
Assay type: in vivo, human
Source text: Randomized, double-blind, placebo-controlled, multicenter, phase II study of Compound 1 (dosed as a [Compound 1:HCl:3H2O]) to compare four dose regimens versus placebo, in combination with methotrexate, administered for 4 weeks in the treatment of subjects with active rheumatoid arthritis who have an inadequate response to methotrexate alone.
Randomized double-blind, placebo-controlled add on study in subjects with active RA who have an inadequate response to MTX monotherapy, in combination with methotrexate, administered for 4 weeks in the treatment of subjects with active rheumatoid arthritis who have an inadequate response to methotrexate alone.
90 subjects randomized to one of 4 dose regimens of Compound 1 (dosed as a [Compound 1:HCl:3H2O]) or placebo, on top of their stable dose of MTX. Thus, each of the 4 different doses of Compound 1 (dosed as a [Compound 1:HCl:3H2O]) and placebo groups has 18 subjects.
Compound 1 (dosed as a [Compound 1:HCl:3H2O]) capsules administered orally in 30 mg, 75 mg, 150 mg, or 300 mg doses per day for 4 weeks.
This assay relies on a homogeneous enzymatic colorimetric test. In the presence of magnesium ions, dextran sulfate selectively forms water-soluble complexes with LDL, VLDL and chylomicrons which are resistant to PEG-modified enzymes.
The cholesterol concentration of [HDL]-cholesterol is determined enzymatically by cholesterol esterase and cholesterol oxidase coupled with PEG to the amino groups (approx. 40%).
In the presence of peroxidase, the hydrogen peroxide generated reacts with 4-amino-antipyrine and Sodium N-(2-hydroxy-3-sulfopropyl)-3,5-dimethoxyaniline (HSDA) to form a purple-blue dye. The color intensity of this dye is directly proportional to the cholesterol concentration and is measured photometrically.
Human serum and plasma samples [HDL] determination was done on a Roche/Hitachi Cobas c 701/702 system which automatically calculate the analyte concentration of each sample. Samples containing precipitates are centrifuged before performing the assay.

O=C(Nc1nc2cccc(-c3ccc(CN4CCS(=O)(=O)CC4)cc3)n2n1)C1CC1 [Compound 1, cyclopropanecarboxylic acid {5-[4-(1,1-dioxo-thiomorpholin-4-ylmethyl)-phenyl]-[1,2,4]triazolo[1,5-a]pyridin-2yl}-amide]
[HDL] levels (30 mg q.d., Baseline): 1.40 mmol/L
[HDL] levels (30 mg q.d., week 1): 1.44 mmol/L
[HDL] levels (30 mg q.d., week 2): 1.43 mmol/L
[HDL] levels (30 mg q.d., week 3): 1.38 mmol/L
[HDL] levels (30 mg q.d., week 4): 1.43 mmol/L
[HDL] % Mean % variation vs baseline after 4 weeks (30 mg qd): 4%
[HDL] levels (75 mg q.d., Baseline): 1.46 mmol/L
[HDL] levels (75 mg q.d., week 1): 1.46 mmol/L
[HDL] levels (75 mg q.d., week 2): 1.50 mmol/L
[HDL] levels (75 mg q.d., week 3): 1.56 mmol/L
[HDL] levels (75 mg q.d., week 4): 1.57 mmol/L
[HDL] % Mean % variation vs baseline after 4 weeks (75 mg qd): 11%
[HDL] levels (150 mg q.d., Baseline): 1.46 mmol/L
[HDL] levels (150 mg q.d., week 1): 1.45 mmol/L
[HDL] levels (150 mg q.d., week 2): 1.47 mmol/L
[HDL] levels (150 mg q.d., week 3): 1.55 mmol/L
[HDL] levels (150 mg q.d., week 4): 1.53 mmol/L
[HDL] % Mean % variation vs baseline after 4 weeks (150 mg qd): 4%
[HDL] levels (300 mg q.d., Baseline): 1.36 mmol/L
[HDL] levels (300 mg q.d., week 1): 1.55 mmol/L
[HDL] levels (300 mg q.d., week 2): 1.73 mmol/L
[HDL] levels (300 mg q.d., week 3): 1.75 mmol/L
[HDL] levels (300 mg q.d., week 4): 1.84 mmol/L
[HDL] % Mean % variation vs baseline after 4 weeks (300 mg qd): 38%
